Assay results reported in patent publication US6555709B1, “Aromatic amides, their preparation process and their use as pesticides” (Hoechst Schering AgrEvo S.A., priority 1997, dated 2003).

Assays:
Type in all cases: in vivo
[1] = test system: Heliothis Virescens; assay: Study on Heliothis virescens, treated artificial medium; conditions: starting from a dose of 300 ppm; neonate larva on treated artificial medium; checked after seven days; 25° C.
Procedure: C) Study on Heliothis Virescens The product was dissolved at the desired concentration in an acetone-water mixture (50-50). 50 μl of solution is deposited on the surface of small well containing approximately 2 grams of plant based artificial medium. One neonate larva of Heliothis virescens was then introduced into each well, which was sealed with a sheet of cellophane. The tests were kept at a temperature of 25° C., with a photoperiod of twelve hours., The mortality of the larvae was checked after seven days.

[2] = test system: Diabrotica undecimpunctata; assay: Study of the activity on Diabrotica, treated filter paper; conditions: starting from a dose of 300 ppm; final stage larvae on treated filter paper; checked 24 hours after treatment
Procedure: D) Study of the Activity on Diabrotica The test insects were final stage larvae of Diabrotica undecimpunctata. A 9 cm disc of filter paper, placed at the bottom of Petri dish, was treated using 1 cm^3 of an acetone solution. After drying 15 larvae per dose were deposited and the mortality check was carried out 24 hours after treatment.

[3] = test system: Spodoptera Littoralis; assay: Study on Spodoptera littoralis, treated haricot leaves; conditions: starting from a dose of 300 ppm; larvae on dipped haricot leaves; checked after seven days; 25° C.
Procedure: B) Study on Spodoptera Littoralis The product was dissolved at the desired concentration in an acetone-water mixture (50-50). Haricot leaves (Phaseolus vulgaris, var. […]) were immersed for five seconds in the solution, then left to dry in a Petri dish for one hour. Ten larvae of Spodoptera littoralis were then added to each dish. These are were at a temperature of 25° C., with a photoperiod of twelve hours. After seven days, the mortality of the larvae was checked and the foliar surface consumed is evaluated.

[4] = test system: Phaedon Cochleariae; assay: Study on Phaedon cochleariae, treated Chinese cabbage foliar disks; conditions: dose of 300 ppm; adults on dipped Chinese cabbage disks; checked after seven days; 25° C.
Procedure: A) Study on Phaedon Cochleariae The product was dissolved at the desired concentration in an acetone-water mixture (50-50). Foliar disks of Chinese cabbage (Brassica pekinensis) were immersed for five seconds in the solution, then left to dry for one hour. Ten adults (a mixture of males and females) were added into a Petri dish containing a foliar disk. These were kept at a temperature of 25° C., with a photoperiod of twelve hours. After seven days, the mortality of the insects was checked and the foliar surface consumed is evaluated.

Row | Structure (SMILES) | activity (mortality of the larvae) [1] | activity (mortality) [2] | activity (mortality of the larvae and foliar surface consumed) [3] | activity (mortality of the insects and foliar surface consumed) [4]
1 | C=C(NC(C)C(C)C)c1ccc(Cc2ccc3cc(Cl)c(Cl)cc3c2)cc1 (stereo not shown) [Product M] | very good activity | very good activity | – | –
2 | Cc1ccccc1NC(=O)c1ccc(Cc2ccc3c(Br)cccc3c2)cc1 [Product C] | very good activity | – | very good activity | –
3 | Cc1ccccc1NC(=O)c1ccc(Cc2ccc3cc(Br)ccc3c2)cc1 [Product D] | very good activity | – | very good activity | –
4 | CC(C)C(C)NC(=O)c1ccc(Cc2ccc3cc(Cl)ccc3c2)cc1 (stereo not shown) [Product L] | very good activity | very good activity | – | –
5 | Cc1ccccc1NC(=O)c1ccc(CC2CCc3c(ccc(Cl)c3Cl)C2F)cc1 (stereo not shown) [Product J] | very good activity | – | very good activity | –
6 | Cc1ccccc1NC(=O)c1ccc(CC2=Cc3ccc(I)cc3CC2)cc1 [Product G] | very good activity | – | very good activity | –
7 | Cc1ccccc1NC(=O)c1ccc(CC2=Cc3ccc(Br)cc3CC2)cc1 [Product E] | very good activity | – | very good activity | –
8 | O=C(Nc1ccccc1)c1ccc(Cc2ccc3cc(Cl)c(Cl)cc3c2)cc1 [Product K] | very good activity | – | very good activity | –
9 | Cc1ccccc1NC(=O)c1ccc(Cc2ccc3cc(Cl)ccc3c2)cc1 [Product B] | very good activity | – | very good activity | –
10 | Cc1ccccc1NC(=O)c1ccc(CC2=Cc3ccc(Cl)c(Cl)c3CC2)cc1 [Product A] | very good activity | very good activity | very good activity | very useful activity
11 | Cc1ccccc1NC(=O)c1ccc(CC2CCc3cc(I)ccc3C2)cc1 (stereo not shown) [Product F] | very good activity | – | very good activity | –
12 | Cc1ccccc1NC(=O)c1ccc(CC2=Cc3cc(Br)c(Br)cc3CC2)cc1 [Product H] | very good activity | – | very good activity | –
13 | Cc1ccccc1NC(=O)c1ccc(Cc2ccc3c(c2)CC(Br)C(Br)C3)cc1 (stereo not shown) [Product I] | very good activity | – | very good activity | –
